Literature values as cited in patent publication US11053249B2, “Proteasome inhibiting β-lactam prodrugs useful for the treatment of cancer and neurodegenerative disorders” (Vita Api, priority 2016, dated 2021).

Conditions: Hogan & Corey, 2005, 2007

CC(C)C(O)[C@@]12NC(=O)[C@H](CCCl)[C@@H]1NC2=O (stereo partly drawn) [initial β-lactam]
experimental infrared C═O stretching frequency: 1756 cm⁻¹
